Results from patent US20250360145A1, “CSF-1R INHIBITORS AND USES THEREOF” (Myrobalan Therapeutics, Inc., priority 2022, published 2025).
pEC50, pIC50: −log10 of the molar value. Like-named read-outs stand apart in the source and are kept apart here.

Legend:
CSF-1R = CSF-1R (Homo sapiens (Human), UniProt P07333); assay: Biochemical HTRF kinase assay, CSF-1R; details: recombinant human CSF-1R;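 further: enzyme incubated with inhibitor plus a substrate and ATP mix for one hour at room temperature before HTRF detection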
CSF-1R, sequence (P07333 20-972): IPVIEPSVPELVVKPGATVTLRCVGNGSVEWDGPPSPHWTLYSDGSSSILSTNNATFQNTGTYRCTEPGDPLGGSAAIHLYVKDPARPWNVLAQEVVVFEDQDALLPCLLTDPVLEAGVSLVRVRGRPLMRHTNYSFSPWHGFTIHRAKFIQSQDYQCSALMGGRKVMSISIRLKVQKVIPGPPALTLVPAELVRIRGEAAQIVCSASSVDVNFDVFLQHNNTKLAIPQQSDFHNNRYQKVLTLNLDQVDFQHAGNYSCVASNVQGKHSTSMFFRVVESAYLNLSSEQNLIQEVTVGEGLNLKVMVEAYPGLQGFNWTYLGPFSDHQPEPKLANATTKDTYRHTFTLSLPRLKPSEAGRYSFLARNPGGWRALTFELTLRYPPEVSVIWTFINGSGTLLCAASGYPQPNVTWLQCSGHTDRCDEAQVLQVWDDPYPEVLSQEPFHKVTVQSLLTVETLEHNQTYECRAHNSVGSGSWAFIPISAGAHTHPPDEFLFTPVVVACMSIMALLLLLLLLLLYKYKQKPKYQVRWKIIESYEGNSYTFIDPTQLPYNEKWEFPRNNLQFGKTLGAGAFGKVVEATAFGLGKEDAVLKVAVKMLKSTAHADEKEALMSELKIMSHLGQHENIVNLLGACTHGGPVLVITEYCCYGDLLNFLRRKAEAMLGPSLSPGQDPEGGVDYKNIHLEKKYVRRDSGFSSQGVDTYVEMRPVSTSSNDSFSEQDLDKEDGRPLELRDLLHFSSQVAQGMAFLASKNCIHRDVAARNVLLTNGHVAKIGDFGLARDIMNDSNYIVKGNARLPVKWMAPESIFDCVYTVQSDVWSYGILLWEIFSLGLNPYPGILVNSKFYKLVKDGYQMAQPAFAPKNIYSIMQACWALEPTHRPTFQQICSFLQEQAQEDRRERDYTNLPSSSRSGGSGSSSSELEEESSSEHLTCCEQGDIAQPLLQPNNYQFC

c-Kit = c-Kit (Homo sapiens (Human), UniProt P10721); assay: Biochemical HTRF kinase assay, c-Kit; details: for pIC50: recombinant human protein, read-out: cKit IC50; for cKit Fold: selectivity: IC50 of cKit as multiple of IC50 of CSF-1R;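 on all read-outs here: enzyme reaction with substrate and ATP run in 384-well plates for 1 hour at room temperature, kinase activity detected by HTRF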
c-Kit, sequence (P10721 26-976): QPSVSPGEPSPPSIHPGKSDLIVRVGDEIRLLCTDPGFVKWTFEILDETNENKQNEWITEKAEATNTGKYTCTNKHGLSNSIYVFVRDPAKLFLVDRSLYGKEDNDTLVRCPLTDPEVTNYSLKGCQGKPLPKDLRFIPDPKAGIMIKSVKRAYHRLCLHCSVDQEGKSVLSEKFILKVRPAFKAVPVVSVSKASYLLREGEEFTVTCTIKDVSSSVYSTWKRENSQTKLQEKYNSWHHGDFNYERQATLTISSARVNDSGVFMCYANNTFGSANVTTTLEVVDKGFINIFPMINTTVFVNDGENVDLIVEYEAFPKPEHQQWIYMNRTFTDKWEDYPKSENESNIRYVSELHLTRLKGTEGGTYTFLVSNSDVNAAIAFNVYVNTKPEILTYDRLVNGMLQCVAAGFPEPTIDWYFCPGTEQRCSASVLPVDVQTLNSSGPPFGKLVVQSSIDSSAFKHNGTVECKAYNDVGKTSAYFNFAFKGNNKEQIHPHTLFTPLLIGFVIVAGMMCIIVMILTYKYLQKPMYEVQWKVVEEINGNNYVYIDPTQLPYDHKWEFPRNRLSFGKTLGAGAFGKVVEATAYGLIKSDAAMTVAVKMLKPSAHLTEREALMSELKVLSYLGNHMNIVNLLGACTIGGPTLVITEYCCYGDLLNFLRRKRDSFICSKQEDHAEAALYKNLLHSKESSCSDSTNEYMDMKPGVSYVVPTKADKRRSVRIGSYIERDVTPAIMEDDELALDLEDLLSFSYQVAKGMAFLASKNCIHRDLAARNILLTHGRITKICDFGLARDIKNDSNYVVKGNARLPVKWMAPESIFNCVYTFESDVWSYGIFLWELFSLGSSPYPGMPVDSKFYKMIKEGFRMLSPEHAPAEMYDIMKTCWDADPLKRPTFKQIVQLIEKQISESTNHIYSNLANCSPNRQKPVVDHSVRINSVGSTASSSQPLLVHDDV

FLT3 = FLT3 (Homo sapiens (Human), UniProt P36888); assay: Biochemical HTRF kinase assay, FLT3; details: for pIC50: recombinant human protein; for FLT3 Fold: selectivity: IC50 of FLT3 as multiple of IC50 of CSF-1R
FLT3, sequence (P36888 27-993): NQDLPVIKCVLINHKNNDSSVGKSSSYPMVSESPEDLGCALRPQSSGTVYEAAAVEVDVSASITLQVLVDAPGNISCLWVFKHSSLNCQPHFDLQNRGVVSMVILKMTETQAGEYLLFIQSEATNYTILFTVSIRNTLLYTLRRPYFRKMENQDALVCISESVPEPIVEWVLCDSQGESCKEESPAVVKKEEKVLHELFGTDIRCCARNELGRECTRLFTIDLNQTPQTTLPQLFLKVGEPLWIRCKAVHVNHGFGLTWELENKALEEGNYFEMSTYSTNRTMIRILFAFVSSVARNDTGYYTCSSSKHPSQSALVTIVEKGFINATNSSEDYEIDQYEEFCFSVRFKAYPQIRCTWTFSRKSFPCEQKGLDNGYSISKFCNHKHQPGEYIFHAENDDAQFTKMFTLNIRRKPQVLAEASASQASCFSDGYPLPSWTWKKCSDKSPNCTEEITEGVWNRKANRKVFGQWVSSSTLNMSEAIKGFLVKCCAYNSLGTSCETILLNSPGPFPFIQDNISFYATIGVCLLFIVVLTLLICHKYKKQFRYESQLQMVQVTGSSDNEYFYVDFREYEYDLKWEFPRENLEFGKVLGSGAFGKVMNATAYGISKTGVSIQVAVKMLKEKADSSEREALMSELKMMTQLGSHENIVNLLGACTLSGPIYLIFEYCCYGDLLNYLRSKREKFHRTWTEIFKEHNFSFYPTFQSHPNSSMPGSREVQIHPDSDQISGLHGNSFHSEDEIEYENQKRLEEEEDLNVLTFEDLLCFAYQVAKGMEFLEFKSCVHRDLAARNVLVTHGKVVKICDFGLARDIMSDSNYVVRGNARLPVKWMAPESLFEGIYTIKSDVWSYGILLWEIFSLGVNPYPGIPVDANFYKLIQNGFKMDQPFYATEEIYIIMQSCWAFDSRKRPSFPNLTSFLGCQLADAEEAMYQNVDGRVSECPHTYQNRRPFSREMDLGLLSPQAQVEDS

PDGFRβ = PDGFRβ (Homo sapiens (Human), UniProt P09619); assay: Biochemical HTRF kinase assay, PDGFRβ; details: for pIC50: recombinant human protein, read-out: PDGFR-1β IC50; for PDGFR-1β Fold: selectivity: IC50 of PDGFR-1β as multiple of IC50 of CSF-1R;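 on all read-outs here: kinase reaction with substrate/ATP mix run 1 h at room temperature in 384-well format, HTRF signal detection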
PDGFRβ, sequence (P09619 33-1106): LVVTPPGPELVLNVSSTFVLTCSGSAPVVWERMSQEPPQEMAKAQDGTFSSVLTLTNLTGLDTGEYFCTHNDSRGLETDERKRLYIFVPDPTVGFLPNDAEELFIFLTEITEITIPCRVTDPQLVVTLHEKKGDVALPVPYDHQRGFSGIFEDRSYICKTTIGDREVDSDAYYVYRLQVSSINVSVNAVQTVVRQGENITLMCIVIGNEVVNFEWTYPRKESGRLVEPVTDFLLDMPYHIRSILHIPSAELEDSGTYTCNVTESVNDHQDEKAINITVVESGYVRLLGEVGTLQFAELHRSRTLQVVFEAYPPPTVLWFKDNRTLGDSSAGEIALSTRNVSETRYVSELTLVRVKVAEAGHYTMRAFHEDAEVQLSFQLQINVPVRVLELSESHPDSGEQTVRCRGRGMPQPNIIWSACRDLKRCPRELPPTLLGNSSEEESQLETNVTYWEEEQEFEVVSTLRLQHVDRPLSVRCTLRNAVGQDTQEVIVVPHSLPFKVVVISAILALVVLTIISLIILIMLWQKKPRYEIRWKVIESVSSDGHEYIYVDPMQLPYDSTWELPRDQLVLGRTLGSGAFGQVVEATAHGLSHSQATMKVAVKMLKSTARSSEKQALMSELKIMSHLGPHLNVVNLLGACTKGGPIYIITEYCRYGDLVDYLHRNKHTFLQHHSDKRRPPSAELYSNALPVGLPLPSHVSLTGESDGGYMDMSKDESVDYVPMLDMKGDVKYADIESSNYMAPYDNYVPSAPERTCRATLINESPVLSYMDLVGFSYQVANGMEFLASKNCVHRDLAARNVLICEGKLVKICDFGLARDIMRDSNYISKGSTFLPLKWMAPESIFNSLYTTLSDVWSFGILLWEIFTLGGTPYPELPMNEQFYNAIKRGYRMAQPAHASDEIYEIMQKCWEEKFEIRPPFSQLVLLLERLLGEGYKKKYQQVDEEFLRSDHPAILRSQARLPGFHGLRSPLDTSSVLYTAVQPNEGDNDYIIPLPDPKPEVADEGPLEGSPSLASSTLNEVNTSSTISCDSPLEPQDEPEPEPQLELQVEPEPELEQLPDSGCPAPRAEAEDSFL

[1] = test system: Ba/F3_CSF-1R (stably expressing human CSF-1R kinase); assay: Cell proliferation assay, Ba/F3_CSF-1R; type: cell-based; details: BaF3, 72 h, Ba/F3_CSF-1R cells, 72 hours treatment; read-out: CSF-1R BaF3 EC50
EOC2 cell = assay: Cell proliferation assay, EOC2; type: cell-based, mouse; details: Mus musculus, 72 h, EOC2 cells, 72 hours treatment; read-out: ECO2 EC50
[2] = In vivo PK study (plasma and brain exposure); design: species or system CD1 mouse; details: male; for half-life: CD1, mouse
Protocol: The PK profiles were determined in CD1 mouse, and all the procedures and protocols were in accordance with the National Institutes of Health Guide for the Care and Use of Laboratory Animals. The CD1 mouse were purchased from JH Laboratory Animal Co. LTD. The CD1 mouse (23-30 g, 6-8 weeks, male) were randomized and divided into five groups consisting of 21 mouse per group. The test compounds that have been formulated were subjected to PK studies. The test compounds were administrated via p.o. at 45 mg/kg and i.v. at 2 mg/kg. […] The blood samples were placed on wet ice, and serum was collected after centrifugation. Serum samples were frozen and stored at −70° C. The brain samples were dried on filtrate paper, and snap frozen on dry ice and further stored at −70° C. Then, the blood samples and brain samples were further analyzed by LC-MS/MS (Triple Quad 6500+).

[3] = Plasma protein binding study; type: in vitro ADME; details: mouse plasma, equilibrium dialysis 4 hours; read-out: PPB-mouse (Bound) (%) (converted)
Protocol: On the day of experiment, the plasma was thawed under running cold tap water and centrifuged at 3220×g for 5 min to remove any clots. The pH value was checked and recorded. Only plasma within range of pH 7.0 to pH 8.0 was used. Pretreat the dialysis membrane according to the manufacturer's instructions: the dialysis membrane strips were soaked in ultra pure water at room temperature for approximately 1 hr. After that, each membrane strip that contains 2 membranes was separated and soaked in ethanol:water (20:80 v:v) for approximately 20 min, after which it was ready for use or was stored in the solution at 2-8° C. for up to 1 month. Prior to the experiment, the membrane was rinsed and soaked for 20 min in ultra pure water for use. Working solutions (400 μM) of test compound and control compound were prepared. Aliquots of working solutions (3 μL) were spiked into blank matrix (597 μL) to achieve final concentrations and mixed thoroughly. Aliquots of 50 μL loading matrix containing test compound or control compound in triplicate was transferred to Sample Collection Plate, respectively. The samples were matched with opposite blank buffer to obtain a final volume of 100 μL with a volume ratio of matrix:Dialysis Buffer (1:1, v:v) in each well immediately. The stop solution was added to these T0 samples of test compound and control compound. The plate was sealed and shaked at 800 rpm for 10 min. Then these T0 samples were stored at 2-8° C. pending further process along with other post-dialysis samples. The dialysis instrument was assembled following manufacture's instructions. An aliquot of 100 μL of the loading matrix containing test compound or control compound was transferred to the donor side of each dialysis well in triplicate and 100 μL of the Dialysis Buffer was loaded to the receiver side of the well. Then the plate was rotated at approximately 100 rpm in a humidified incubator with 5% CO2 at 37±1° C. for 4 hours. At the end of the dialysis, aliquots of 50 μL samples from the buffer side and matrix side of the dialysis device were taken into new 96-well plates (Sample Collection Plates). An equal volume of opposite blank matrix (buffer or matrix) in each sample was added to reach a final volume of 100 μL with volume ratio of matrix:Dialysis Buffer at 1:1 (v:v) in each well. All samples were further processed by protein precipitation for LC/MS/MS analysis.

[4] = Brain protein binding study; type: in vitro ADME; details: mouse brain homogenate, equilibrium dialysis 4 hours
Protocol: On the day of experiment, brain homogenate was thawed in water bath at room temperature and then incubated at 37° C. for 10 min before use. Pretreat the dialysis membrane according to the manufacturer's instructions: the dialysis membrane strips were soaked in ultra pure water at room temperature for approximately 1 hr. After that, each membrane strip that contains 2 membranes was separated and soaked in ethanol:water (20:80 v:v) for approximately 20 min, after which it was ready for use or was stored in the solution at 2-8° C. for up to 1 month. Prior to the experiment, the membrane was rinsed and soaked for 20 min in ultra pure water for use. Then working solutions (400 μM) of test compound and control compound were prepared. Aliquots of working solutions (3 μL) were spiked into blank matrix (597 μL) to achieve final concentrations and mixed thoroughly. Aliquots of 50 μL loading matrix containing test compound or control compound in triplicate was transferred to Sample Collection Plate, respectively. The samples were matched with opposite blank buffer to obtain a final volume of 100 μL with a volume ratio of matrix:Dialysis Buffer (1:1, v:v) in each well immediately. The stop solution was added to these T0 samples of test compound and control compound. The plate was sealed and shaked at 800 rpm for 10 min. Then these T0 samples were stored at 2-8° C. pending further process along with other post-dialysis samples. The dialysis instrument was assembled following manufacture's instructions. An aliquot of 100 μL of the loading matrix containing test compound or control compound was transferred to the donor side of each dialysis well in triplicate and 100 μL of the Dialysis Buffer was loaded to the receiver side of the well. Then the plate was rotated at approximately 100 rpm in a humidified incubator with 5% CO2 at 37±1° C. for 4 hours. At the end of the dialysis, aliquots of 50 μL samples from the buffer side and matrix side of the dialysis device were taken into new 96-well plates (Sample Collection Plates). An equal volume of opposite blank matrix (buffer or matrix) in each sample was added to reach a final volume of 100 μL with volume ratio of matrix:Dialysis Buffer at 1:1 (v:v) in each well. All samples were further processed by protein precipitation for LC/MS/MS analysis.

## COc1cnc2c(Cc3cnc(OCc4cc(C)n(C5COC5)n4)c(OC)c3)ccnc2c1 [Example 88]
CSF-1R; Table 2
  pIC50: 8.31
CSF-1R; Table 3
  pIC50: 8.31
c-Kit
  pIC50: < 6.00
  cKit Fold: >100 fold
FLT3
  pIC50: < 6.00
  FLT3 Fold: >100 fold
PDGFRβ
  pIC50: < 6.00
  PDGFR-1β Fold: >100 fold
[1]
  pEC50: 7.12
EOC2 cell
  pEC50: 6.93

## COc1ncc(F)cc1CNc1ccc(Cc2c[nH]c3ncc(C)cc23)c(F)n1 [PLX5622, reference compound]
[2]; CD1, brain, po, mouse, p.o. 45 mg/kg, BBB penetration
  Kp uu: 0.003
[2]; serum, iv, 2 mg/kg, CD1 mouse, i.v. 2 mg/kg, read-out: IV-2mpk T1/2 (converted)
  half-life: 3.69 h
[2]; serum, po, 45 mg/kg, CD1 mouse, p.o. 45 mg/kg, read-out: PO-45mpk T1/2 (converted)
  half-life: 2.43 h
[2]; CD1, po, mouse, p.o. 45 mg/kg, brain, read-out: PO-45mpk AUClast-brain
  AUC(0-t): 37.6 µg·h/mL
[2]; CD1, po, mouse, p.o. 45 mg/kg, plasma, Tables 7 and 8, read-out: PO-45mpk AUClast-plasma
  AUC(0-t): 163 µg·h/mL
[2]; serum, iv, CD1 mouse, i.v. 2 mg/kg, read-out: IV-2mpk AUCInf
  AUC(0-inf): 6.13 µg·h/mL
[2]; serum, iv, CD1 mouse, i.v. 2 mg/kg, read-out: IV-2mpk AUClast
  AUC(0-t): 6.1 µg·h/mL
[2]; serum, iv, CD1 mouse, i.v. 2 mg/kg, read-out: IV-2mpk CL (converted)
  clearance: 5.43 mL/min/kg
[2]; serum, iv, CD1 mouse, i.v. 2 mg/kg, read-out: IV-2mpk VSS
  Vd: 0.98 L/kg
[2]; serum, oral, CD1 mouse, p.o. 45 mg/kg vs i.v. 2 mg/kg
  bioavailability: 118%
[2]; serum, po, CD1 mouse, p.o. 45 mg/kg, Tables 5 and 6, read-out: PO-45mpk AUClast
  AUC(0-t): 163 µg·h/mL
[2]; serum, po, CD1 mouse, p.o. 45 mg/kg, read-out: PO-45mpk AUCInf
  AUC(0-inf): 163 µg·h/mL
[2]; serum, po, CD1 mouse, p.o. 45 mg/kg, read-out: PO-45mpk Cmax
  Cmax: 24900 ng/mL
[2]; serum, po, CD1 mouse, p.o. 45 mg/kg, read-out: PO-45mpk Tmax
  Tmax: 1 h
[3]
  fraction unbound at 4 h, 2 µM: 0.023
[4]
  BPB-mouse (Bound) (%): 99.97%

## [2H]C([2H])([2H])Oc1cnc2c(Cc3cnc(OCc4ccc(OC)cn4)c(OC)c3)ccnc2c1 [Example 79]
CSF-1R; Table 2
  pIC50: 8.44
CSF-1R; Table 3
  pIC50: 8.44
c-Kit
  pIC50: < 6.00
  cKit Fold: >100 fold
FLT3
  pIC50: < 6.00
  FLT3 Fold: >100 fold
PDGFRβ
  pIC50: 6.17
  PDGFR-1β Fold: >100 fold
[1]
  pEC50: 6.93
EOC2 cell
  pEC50: 7.22

## COc1cnc2c(Cc3cnc(OCc4ccc(OC(F)F)cn4)c(OC)c3)ccnc2c1 [Example 56]
CSF-1R; Table 2
  pIC50: 8.66
CSF-1R; Table 3
  pIC50: 8.66
c-Kit
  pIC50: < 6.00
  cKit Fold: >100 fold
FLT3
  pIC50: < 6.00
  FLT3 Fold: >100 fold
PDGFRβ
  pIC50: 6.51
  PDGFR-1β Fold: >100 fold
[1]
  pEC50: 6.88
EOC2 cell
  pEC50: 7.51

## COc1cnc2c(Cc3cnc(OCc4cc(C(C)C)n(C)n4)c(OC)c3)ccnc2c1 [Example 93]
CSF-1R; Table 2
  pIC50: 8.68
CSF-1R; Table 3
  pIC50: 8.68
c-Kit
  pIC50: < 6.00
  cKit Fold: >100 fold
FLT3
  pIC50: < 6.00
  FLT3 Fold: >100 fold
PDGFRβ
  pIC50: < 6.00
  PDGFR-1β Fold: >100 fold
[1]
  pEC50: 7.14
EOC2 cell
  pEC50: 7.74

## COc1cnc2c(Cc3cnc(OCc4cc5n(n4)CCC5)c(OC)c3)ccnc2c1 [Example 72]
CSF-1R; Table 2
  pIC50: 8.66
CSF-1R; Table 3
  pIC50: 8.66
c-Kit
  pIC50: < 6.00
  cKit Fold: >100 fold
FLT3
  pIC50: < 6.00
  FLT3 Fold: >100 fold
PDGFRβ
  pIC50: < 6.00
  PDGFR-1β Fold: >100 fold
[1]
  pEC50: 7.13
EOC2 cell
  pEC50: 7.23

## COc1cnc2c(Cc3cnc(OCc4cc5n(n4)CC4CC54)c(OC)c3)ccnc2c1 (centres unmarked) [Example 101]
CSF-1R; Table 2
  pIC50: 8.72
CSF-1R; Table 3
  pIC50: 8.72
c-Kit
  pIC50: 6.15
  cKit Fold: >100 fold
FLT3
  pIC50: < 6.00
  FLT3 Fold: >100 fold
PDGFRβ
  pIC50: 6.08
  PDGFR-1β Fold: >100 fold
[1]
  pEC50: 7.11
EOC2 cell
  pEC50: 7.32

## COc1ccc(COc2ncc(Cc3ccnc4cc(N(C)C)cnc34)cc2OC)nc1 [Example 100, 8-((5-methoxy-6-((5-methoxypyridin-2-yl)methoxy)pyridin-3-yl)methyl)-N,N-dimethyl-1,5-naphthyridin-3-amine]
CSF-1R; Table 2
  pIC50: 8.66
CSF-1R; Table 3
  pIC50: 8.66
c-Kit
  pIC50: 6.06
  cKit Fold: >100 fold
FLT3
  pIC50: < 6.00
  FLT3 Fold: >100 fold
PDGFRβ
  pIC50: 6.42
  PDGFR-1β Fold: >100 fold
[1]
  pEC50: 7.77
EOC2 cell
  pEC50: 8.00

## COc1ccc(COc2ncc(Cc3ccnc4cccnc34)cc2OC)nc1 [Example 15, 4-((5-methoxy-6-((5-methoxypyridin-2-yl)methoxy)pyridin-3-yl)methyl)-1,5-naphthyridine]
CSF-1R; Table 2
  pIC50: 8.01
CSF-1R; Table 3
  pIC50: 8.01
c-Kit
  pIC50: < 6.00
  cKit Fold: >100 fold
FLT3
  pIC50: < 6.00
  FLT3 Fold: >100 fold
PDGFRβ
  pIC50: < 6.00
  PDGFR-1β Fold: >100 fold
[1]
  pEC50: 6.36
EOC2 cell
  pEC50: 6.60

## COc1cnc2c(Cc3cnc(OCc4cc(C)n(C)n4)c(OC)c3)ccnc2c1 [Example 82]
CSF-1R; Table 2
  pIC50: 8.34
CSF-1R; Table 3
  pIC50: 8.34
c-Kit
  pIC50: < 6.00
  cKit Fold: >100 fold
FLT3
  pIC50: < 6.00
  FLT3 Fold: >100 fold
PDGFRβ
  pIC50: < 6.00
  PDGFR-1β Fold: >100 fold
[1]
  pEC50: 6.79
EOC2 cell
  pEC50: 6.94

## [2H]C([2H])([2H])Oc1cc(Cc2ccnc3cc(OC)cnc23)cnc1OCc1ccc(OC)cn1 [Example 74]
CSF-1R; Table 2
  pIC50: 8.48
CSF-1R; Table 3
  pIC50: 8.48
c-Kit
  pIC50: < 6.00
  cKit Fold: >100 fold
FLT3
  pIC50: < 6.00
  FLT3 Fold: >100 fold
PDGFRβ
  pIC50: < 6.00
  PDGFR-1β Fold: >100 fold
[1]
  pEC50: 7.00
EOC2 cell
  pEC50: 7.48
